Measurements from patent publication US20190046662A1, “Compositions and Methods for Treating Neuropathic Pain” (Rutgers, The State University of New Jersey, priority 2016, published 2019).

Tests used:
Format in all cases: in vivo, rat
hSyn-hM4D [1] = target: T1, hSyn-hM4D (Homo sapiens, UniProt P08173, A203G/Y113C); assay: Pain-like behavior after infraorbital nerve chronic constriction injury (IoN-CCI), synapsin-DREADD (hSyn-hM4D); conditions: IoN-CCI males
T1 construct: expressed in transfected cells; host or cells: rat trigeminal ganglion neurons in vivo, viral vector with synapsin promoter
T1 sequence (P08173 1-479 Y113C/A203G): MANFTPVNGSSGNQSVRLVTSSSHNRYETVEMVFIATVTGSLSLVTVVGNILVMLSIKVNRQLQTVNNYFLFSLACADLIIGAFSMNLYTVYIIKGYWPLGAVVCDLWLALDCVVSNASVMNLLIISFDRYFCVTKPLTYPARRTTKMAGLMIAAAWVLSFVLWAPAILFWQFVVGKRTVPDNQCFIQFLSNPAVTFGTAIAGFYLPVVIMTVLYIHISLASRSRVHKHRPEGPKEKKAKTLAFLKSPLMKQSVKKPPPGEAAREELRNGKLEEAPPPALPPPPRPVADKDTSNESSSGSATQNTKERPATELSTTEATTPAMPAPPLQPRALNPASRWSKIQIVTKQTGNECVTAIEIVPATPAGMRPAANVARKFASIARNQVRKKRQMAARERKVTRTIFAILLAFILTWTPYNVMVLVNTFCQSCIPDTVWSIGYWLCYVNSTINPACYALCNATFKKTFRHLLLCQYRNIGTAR
Source text: (§1) For the infraorbital nerve chronic constriction injury (ION-CCI), ˜0.5 cm of the infraorbital nerve will be freed and two chromic gut ligatures will be loosely tied around it (2 mm apart) prior to closure of the incision (all performed under ketamine/xylazine anesthesia). As a control, other rats will undergo sham surgery where the infraorbital nerve is exposed but left untouched. This model results in persistent pain beginning at about 2 weeks postoperatively and lasting at least 3 weeks (Benoliel et al. (2001) Neurosci. Lett., 297:151-4; Benoliel et al. (2002) Pain 97:203-12), allowing for the assessment of the effect of vehicle vs CNO/DREADD-mediated inhibition of TG neurons on this behavior at multiple time points. Fos expression and cAMP levels may also be measured in the TG to correlate these molecular endpoints to behavioral effects of DREADD activation. The rats will also undergo repeated stimulation with a 2-g von Frey hair applied to the hairy skin of the vibrissae on the operated side to induce Fos (Vos et al. (1995) J. Comp. Neurol., 357:362-75). Activation of hM4Di receptors will reduce Fos in the TG following von Frey stimulation.
(§2) The effects of synapsin-DREADD activation with CNO on pain-like behavior following chronic constriction injury (CCI) of the infraorbital nerve (ION) were also studied (FIG. 6). The mean von Frey detection thresholds (±SEM) (left) and the mean response scores (±SEM) (right) to the pin-prick stimulation applied to the vibrissal pads were plotted. All animals (males, n=4 per group) were exposed to the infraorbital nerve chronic constriction injury (IoN-CCI) unilaterally. Following IoN-CCI, all animals had synapsin-DREADD (hSyn-hM4D) injected into the ipsilateral trigeminal ganglion. At post-operative day 26 (D26) CNO or vehicle was delivered intraperitoneally 30 minutes prior to behavioral testing.

hTac1-hM4D [2] = target: T2, hTac1-hM4D (Homo sapiens, UniProt P08173, A203G/Y113C); assay: Face grooming after s.c. formalin into right upper lip, Tac1-DREADD (hTac1-hM4D); conditions: females, n=7 per group, vs vehicle
T2 construct: expressed in transfected cells; host or cells: rat trigeminal ganglion neurons in vivo, viral vector with Tac1 promoter
T2 sequence (P08173 1-479 Y113C/A203G): T1 sequence (P08173 1-479 Y113C/A203G)
Description: (§3) The effects of Tac1-DREADD activation with CNO on face grooming activity observed after s.c. injection of formalin into the right upper lip were also studied (FIG. 9). The mean number of seconds that rats (females, n=7 per group) spent grooming (±SEM) is plotted for the 45 minutes post-formalin injection observation period. All animals had Tac1-DREADD (hTac1-hM4D) injected into the right trigeminal ganglion. CNO or vehicle was delivered i.p. 30 minutes prior to the s.c. injection of 1.5% formalin (50 μl) into the right upper lip (ipsilateral side), just lateral to the nose.

hSyn-hM4D [3] = target: T1, hSyn-hM4D; assay: Face grooming after s.c. formalin into right upper lip, synapsin-DREADD (hSyn-hM4D); conditions: n=7 per group, vs vehicle
Description: as §3, with “of synapsin-DREADD” for “of Tac1-DREADD”, “after subcutaneous (s.c.)” for “after s.c.”, “(FIG. 5).” for “(FIG. 9).”, “rats (males, n=7 per group; females,” for “rats (females,”, “had synapsin-DREADD (hSyn-hM4D)” for “had Tac1-DREADD (hTac1-hM4D)”, “delivered intraperitoneally” for “delivered i.p.”

hTac1-hM4D [4] = target: T2, hTac1-hM4D; assay: Pin-prick response score, Tac1-DREADD (hTac1-hM4D) in trigeminal ganglion, non-CCI animals; conditions: females, n=7 per group, CNO i.p. vs vehicle
Source text: The effects of Tac1-DREADD activation with CNO on pin-prick response score were also studied (FIG. 8). All animals (female, n=7 per group) had Tachykinin 1-DREADD (hTac1-hM4D) injected into the trigeminal ganglion unilaterally. Average pin-prick response scores (±SEM) were plotted following intraperitoneal (i.p.) administration of CNO or vehicle.

hTac1-hM4D [5] = target: T2, hTac1-hM4D; assay: Pain-like behavior after IoN-CCI, Tac1-DREADD (hTac1-hM4D); conditions: IoN-CCI males
Source text: as §1
as §2, with “Tac1-DREADD” for “synapsin-DREADD”, “IoN-CCI” for “chronic constriction injury (CCI) of the infraorbital nerve (ION)”, “were” for “were also”, “10).” for “6).”, “n=7” for “n=4”, “tachykinin 1-DREADD (hTac1-hM4D)” for “synapsin-DREADD (hSyn-hM4D)”

[6] = Tac1-DREADD study (sentence prints hSyn-hM4D), CNO i.p. at D26

C[N+]1([O-])CCN(C2=Nc3cc(Cl)ccc3Nc3ccccc32)CC1 [CNO, clozapine N-oxide]
pin-prick response score, contralateral side (hSyn-hM4D [1]; CNO i.p. at D26): No significant effects | von Frey detection threshold, contralateral side (hSyn-hM4D [1]; CNO i.p. at D26): No significant effects | von Frey detection threshold, ipsilateral side, compared to post-operative days 21 and 27 (hSyn-hM4D [1]; CNO i.p. at D26, D21 F=20.4, P=0.004, D27 F=7.8, P=0.03): significantly increased | pin-prick response score, ipsilateral side, compared to post-operative days 21 and 27 (hSyn-hM4D [1]; CNO i.p. at D26, D21 F=32, P=0.001, D27 F=21, P=0.004): significantly decreased | von Frey detection threshold, ipsilateral side, compared to vehicle treated animals (hSyn-hM4D [1]; n=4 per group, CNO i.p. at D26, 30 min prior to testing, F=7.8, P=0.03): significantly increased | pin-prick response score, ipsilateral vibrissal pad, compared to vehicle treated animals (hSyn-hM4D [1]; n=4 per group, CNO i.p. at D26, F=7.7, P=0.03): significantly decreased | total face grooming time, acute phase (0-6 minutes post formalin injection) (hTac1-hM4D [2]; CNO i.p. 30 min prior to 1.5% formalin (50 μl) s.c., F=0.07, P=0.8): no significant effect | total face grooming time, tonic phase (12-45 minutes post formalin injection) (hTac1-hM4D [2]; CNO i.p. 30 min prior to formalin, F=1.6, P=0.2): no significant effect | total face grooming time, tonic phase (12-45 minutes post formalin injection) (hSyn-hM4D [3]; females, CNO i.p. 30 min prior to formalin, F=5.5, P=0.02): significantly reduced | total face grooming time, tonic phase (12-45 minutes post formalin injection) (hSyn-hM4D [3]; males, CNO i.p. 30 min prior to 1.5% formalin (50 μl) s.c., F=27.1, P<0.0001): significantly reduced | total face grooming time, acute phase (0-6 minutes post formalin injection) (hSyn-hM4D [3]; males, CNO i.p. 30 min prior to formalin, F=4.5, P=0.04): significant reduction | pin-prick response score, contralateral vibrissal pad (hTac1-hM4D [4]; F=0.01, P=0.9): no significant effect | pin-prick response score, ipsilateral vibrissal pad (hTac1-hM4D [4]; F=0.1, P=0.8): no significant effect | von Frey detection threshold, ipsilateral side, compared to vehicle treated animals (hTac1-hM4D [5]; n=7 per group, hTac1-hM4D, CNO i.p. at D26, 30 min prior to testing, F=6.3, P=0.03): significantly increased | pin-prick response score, ipsilateral vibrissal pad, compared to vehicle treated animals (hTac1-hM4D [5]; n=7 per group, hTac1-hM4D, CNO i.p. at D26, F=8.6, P=0.01): significantly decreased | pin-prick response score, contralateral side (hTac1-hM4D [5]; [6]): No significant effects | von Frey detection threshold, contralateral side (hTac1-hM4D [5]; [6]): No significant effects | pin-prick response score, ipsilateral side, compared to post-operative days 21 and 27 (hTac1-hM4D [5]; hTac1-hM4D, CNO i.p. at D26, D21 F=18.9, P=0.0003, D27 F=16.9, P=0.0006): significantly decreased | von Frey detection threshold, ipsilateral side, compared to post-operative days 21 and 27 (hTac1-hM4D [5]; hTac1-hM4D, CNO i.p. at D26, D21 F=31.4, P<0.0001, D27 F=9.8, P=0.006): significantly increased
